Results on five compounds are retold here after patent US8729107B2, “Pyridines for treating injured mammalian nerve tissue” (Purdue Research Foundation, priority 2002, dated 2014).

Read-outs that look alike come from different tables or passages of the source.

Data set [1] has as its system fast potassium channels (IA) in guinea pig DRG cells. Put plainly: Whole cell patch-clamp recording of voltage-gated potassium currents (Itotal, fast component IA). The following applies: for effect on fast potassium current (initial peak of Itotal): 5 mM in bath solution; for peak (fast activated) potassium current amplitude after treatment: 5 mM in bath, command potential +30 mV. It counts as cell-based.

The test system of data set [2] is delayed rectifier current Idr in guinea pig DRG cells. The data set is described as follows: Whole cell patch-clamp recording of isolated delayed rectifier current. In kind it is cell-based. The following applies: depolarization holding potential; data not shown. In general terms: In patch-clamp work, channel activity is measured electrically.
Data set [3] deals with guinea pigs with compression injury to the mid-thoracic spinal cord. In kind it is in vivo. The conditions noted are these: for failures to respond: by 4 hours after gavage; for effective dosage producing improvement in the electrophysiological record: gavage; for Mean recovered EP (area beneath recovered EP normalized to pre-injury): gavage at 1 week post injury, Table 1; for tolerability of gavage: oral insertion in sedated guinea pigs. The source says: “Somatosensory evoked potential testing (SSEP)” is a means of measuring ascending nerve impulse “traffic” in a “whole” animal. […] These volleys of evoked potentials are initiated by electrical stimulation of the tibial nerve of the hind leg of an animal, which induces ascending sensory volleys of nociceptive impulses to the contralateral sensory cortex of the brain in the intact animal. A severe spinal cord injury eliminates the ability of evoked potentials to cross the lesion and thus SSEPs are not recorded at the brain after lesioning. Quantitative evaluation of the recovery of SSEP conduction through the whole animal provides a more relevant indicator of the feasibility of these compounds to be useful in reversing behavioral loss after specific, localized, and standardized CNS injury. To eliminate the possibility that the failure to record SSEPs could be due to other factors, a control recording is carried out using the median nerve of the foreleg. Since this neural circuit is completely intact (that is—“above” the level of the spinal injury) normal SSEPs must be obtained after such “control” stimulation. FIG. 2 is a diagram of this testing protocol and provides examples of normal recordings in intact animals, the elimination of sensory impulses after a mid-thoracic spinal cord injury, and explains these issues in detail, as well as, emphasizing the importance of a median nerve control procedure.
During live animal testing using guinea pigs, novel pyridine derivatives of the instant invention were administered through a gastric tube to large adult guinea pigs which had previously received a standardized compression injury to their mid-thoracic spinal cords. The ability of these compounds to restore conduction in this second technique was determined by a quantitative evaluation of SSEPs. The following protocols and routes of administration were employed.
Prior to spinal cord injury, fully adult guinea pigs (Hardy strain, around 400 g) were lightly sedated with an intramuscular injection of Ketamine/Rompum and rendered immobile during the placement of stimulation and recording electrodes as illustrated in FIG. 2. A series of SSEP records were then taken subsequent to both tibial and median nerve stimulation in this normal animal. It should be noted here that all surgical procedures and physiological recordings were carried out on anesthetized animals. All animal studies were carried out under protocols approved by the University Animal Care and Use Committee, under strict adherence to University, State, and Federal guidelines for the use of animals in research.
Subsequently, a dorsal laminectomy surgical procedure was carried out exposing the dorsal (posterior) region of the mid-thoracic spinal cord within the vertebral column, the tough covering of the spinal cord (the dura) incised and removed, and the cord crushed by a standardized technique (constant displacement compression. Blight A R (1991a), Morphometric analysis of a model of spinal cord injury in guinea pigs, with behavioral evidence of delayed secondary pathology, J Neurol Sci 103:156-171; Borgens R B, Shi R, Bohnert D (2002), Behavioral recovery from spinal cord injury following delayed application of polyethylene glycol, J Exp Biol 205:1-12, both incorporated herein by reference.
[…] However, periodically physiological records were taken to monitor their status—and a final record at around 2 months post injury to confirm the chronic loss of ascending SSEP conduction through the mid-thoracic lesion.
After 8 weeks had elapsed and a “pre-drug application” electrical record obtained, the guinea pigs were lightly sedated and a test compound was administered directly into the stomach by a gastric tube (compounds were undissolved during introduction to the stomach, however, the gastric tube and any remnants of the compounds were flushed into the stomach by secondary introduction of less than 1 ml of distilled water). […]

Data set [4] relates to injured guinea pig spinal cord white matter. The conditions noted are these: for concentration producing recovery of CAP conduction (effective/working concentration): drug added to bathing medium of central chamber; for increase in the amplitude of the recovered CAP: pre-drug recovered CAP normalized to 100%; for CAP amplitude after removal of the drug and wash: FIG. 8 electrical records, after washout; for CAP relative to pre-drug level: at the concentrations studied.

Data set [5] relates to paralyzed persons with spinal cord injury. The following applies: cited from earlier work.

Take `Nc1ccncc1` [4-AP, 4-aminopyridine, reference compound]: in data set [1], the “effect on fast potassium current (initial peak of Itotal)” value is listed as “largely blocked” and the “peak (fast activated) potassium current amplitude after treatment” value is on record as 2,574.91±446.8 pA. In addition, the “inhibition of Idr” value in data set [2] is “did not significantly inhibit”. In data set [3], the failures to respond result is “Two of the ten animals failed to respond”, the “effective dosage producing improvement in the electrophysiological record” value is reported as 0.47±0.04 mg/kg, the “Mean recovered EP (area beneath recovered EP normalized to pre-injury)” value stood at 40.0 and the tolerability of gavage entry is “uneventful”. The “concentration producing recovery of CAP conduction (effective/working concentration)” value in data set [4] was determined as 100 µM. In addition, the “side effects at the concentrations required” value in data set [5] (human patients) is given as “numerous unwanted side effects”. Besides, the “share of treated population with clinically meaningful recoveries of function” value in data set [5] (paralyzed persons) was “about 30%”.
Turning to `Nc1ccncc1CO` [4-AP-3-MeOH, 4-aminopyridine-3-methanol], the “effect on fast potassium current (initial peak of Itotal)” value in data set [1] is “inhibit the fast potassium currents”. Besides, in data set [1], the “peak (fast activated) potassium current amplitude after treatment” value is recorded as 2,434.20±543.4 pA. In addition, the “effect on IA over step voltage commands” value in data set [1] (step voltage commands from −50 to 40 mV) was “suppresses IA”. The “inhibition of Idr” value in data set [2] is recorded as “did not significantly inhibit”. Also, the “increase of CAP conduction (not significant)” value came to 6.44±3.8% in data set [4] (0.01 μM, stretch-injured cord, mean±SE, n=5) and 6.72±8.3% in data set [4] (1 mM, stretch-injured cord, mean±SE, n=5). Also, the “increase of CAP conduction” value in data set [4] (0.1 μM, stretch-injured cord, mean±SE, n=7) was 12.73±3.2%; in data set [4] (1 μM, stretch-injured cord, mean±SE, n=6) it was 11.27±4.2%; in data set [4] (10 μM, stretch-injured cord, mean±SE, n=11), 13.35±5.9%; in data set [4] (100 μM, stretch-injured cord, mean±SE, n=6) it was 21.51±4.5%. Further, the “effect on CAP activation threshold” value in data set [4] (100 μM, stimulus intensities 1.85 to 6.5 V) is on record as “does not have a significant effect”. In addition, the “CAP conduction across stimulus intensities” value in data set [4] (100 μM, stimulus intensities 1.85 to 6.5 V, data not shown) was “increased CAP conduction at all stimuli intensity levels”. For the same compound, the “suppression of CAP conduction” value in data set [4] (10 mM, stretch-injured cord, mean±SE, n=5) worked out at 18.48±8.1%. Moreover, the “effect on axonal response to dual or multiple stimuli” value in data set [4] (injured spinal cord tissue) is given as “does not have a significant effect”.
On to `CCOC(=O)Nc1ccncc1` [ethyl carbamate (2), N-(4-Pyridyl)Ethyl Carbamate], for which the “recovery of EP compared to 4-AP” value in data set [3] (1 week post injury) was “did not meet significance”. Besides, in data set [3], the failures to respond entry is given as “no failures to respond”, the “Mean recovered EP (area beneath recovered EP normalized to pre-injury)” value is reported as 41.5 and the tolerability of gavage result is “uneventful”. In data set [4], the indication of toxicity result is recorded as “without any indication of toxicity”; the “CAP amplitude after removal of the drug and wash” value is “fallen back to pre-drug levels”; the “CAP relative to pre-drug level” value was “increase in CAP above the pre-drug level”; the “concentration producing recovery of CAP conduction (effective/working concentration)” value is on record as “approximately 100 uM”. In data set [4] (100 uM), the “enhancement of CAP conduction” value is recorded as “enhanced CAP conduction significantly”, the “recovery of CAP relative to 4-AP” value is “slightly lower recovery of CAP than 4-AP” and the “increase in the amplitude of the recovered CAP” value was 18.6±8.7%. The “increase in the amplitude of the CAP in example electrical record” value in data set [4] (FIG. 8 panel A, about 1/2 hour after addition) was ~20%. The “concentration producing recovery of CAP conduction (effective/working concentration)” value in data set [4] (listed as carbamate (2)) was found to be 100 µM.
Consider `COC(=O)Nc1ccncc1` [methyl carbamate (3), N-(4-Pyridyl)Methyl Carbamate], for which, in data set [3] (FIG. 3, 1 hour after gastric tube administration, 1 week post injury), the “cortical potential (P1) after administration” value is “nearly normal cortical potential”. Also, in data set [3], the “effective dosage producing improvement in the electrophysiological record” value amounted to 0.37±0.2 mg/kg, the “Mean recovered EP (area beneath recovered EP normalized to pre-injury)” value is 78.0 and the tolerability of gavage entry is “uneventful”. Further, in data set [4] (100 uM), the “enhancement of CAP conduction” value is “enhanced CAP conduction significantly” and the “increase in the amplitude of the recovered CAP” value was determined as 30.6±11.7%. The “CAP amplitude after removal of the drug and wash” value in data set [4] is “approximate pre-drug levels”. Besides, the “concentration producing recovery of CAP conduction (effective/working concentration)” value in data set [4] (listed as Methyl carbamate (3)) is “approximately 100 uM”. Further, the “concentration producing recovery of CAP conduction (effective/working concentration)” value in data set [4] (listed as carbamate (3)) is 100 µM.
For the compound `CC(C)(C)OC(=O)Nc1ccncc1` [t-butyl carbamate (1), N-(4-Pyridyl) t-Butyl Carbamate], in data set [3] (1 week post injury), the “recovery of EP compared to 4-AP” value is recorded as “significantly enhanced”. Besides, in data set [3], the failures to respond result was “no failures to respond” and the tolerability of gavage entry is “not tolerated”. For the same compound, in data set [4], the indication of toxicity result is “without any indication of toxicity”, the “CAP relative to pre-drug level” value is listed as “increase in CAP above the pre-drug level” and the “concentration producing recovery of CAP conduction (effective/working concentration)” value turned out to be 1 µM. In addition, the “enhancement of CAP conduction” value in data set [4] (1 uM) was “enhance CAP conduction significantly”. In addition, the “increase in recovery CAP amplitude” value in data set [4] (printed 'at uM', n=5, relative to pre-drug CAP) is on record as 15.4±3.4%.
